Assay results as given in DBAASP.
≈ marks a conversion by molar mass, not a printed value. Values belong to the compound of their own block, whether it stands above or below them.

How the values were obtained:
Test in all cases: ≥ marks a high value that may be exact or a test limit, other limits are often not marked, values filed in µg/mL are converted to µM
[1] = test system: Candida albicans ATCC 90028
[2] = test system: Candida glabrata ATCC 90030
[3] = test system: Candida krusei ATCC 6258
[4] = test system: Enterobacter cloacae ATCC 13047
[5] = test system: Enterococcus faecalis ATCC 4028
[6] = test system: Escherichia coli ATCC 25922
[7] = test system: Pseudomonas aeruginosa ATCC 27853
[8] = test system: Staphylococcus aureus ATCC 29213
[9] = test system: Staphylococcus epidermidis ATCC 12228
[10] = test system: Agrobacterium tumefaciens GV3101
[11] = test system: Methylobacterium sp.
[12] = test system: Sinorhizobium meliloti USDA 1002
[13] = test system: Xanthomonas citri
[14] = test system: Escherichia coli UB1005
[15] = test system: Listeria monocytogenes CMCC 54004
[16] = test system: Salmonella enterica subsp. enterica serovar Pullorum C79-13
[17] = test system: Salmonella enterica subsp. enterica serovar Typhi CMCC 50071
[18] = test system: Candida albicans ATCC 14053
[19] = test system: Escherichia coli ATCC 11775
[20] = test system: Micrococcus luteus ATCC 49732
[21] = test system: Staphylococcus aureus ATCC 12600
[22] = test system: Bacillus megaterium Bm11
[23] = test system: Escherichia coli D21
[24] = test system: Escherichia coli ML-35
[25] = test system: Salmonella enterica subsp. enterica serovar Typhimurium ATCC 14028
[26] = test system: Serratia marcescens ATCC 8100
[27] = test system: Aspergillus flavus KCTC 6905
[28] = test system: Aspergillus fumigatus KCTC 6145
[29] = test system: Candida parapsilosis ATCC 22019
[30] = test system: Enterococcus faecalis ATCC 29212
[31] = test system: Enterococcus faecium ATCC 19434
[32] = test system: Escherichia coli BW25113
[33] = test system: Malassezia furfur KCTC 7744
[34] = test system: Salmonella enterica subsp. enterica serovar Enteritidis ATCC 13076
[35] = test system: Salmonella typhimurium KCTC 1926
[36] = test system: Staphylococcus epidermidis KCTC 1917
[37] = test system: Streptococcus mutans KCTC 3065
[38] = test system: Trichosporon beigelii KCTC 7707
[39] = test system: Bacillus subtilis
[40] = test system: Escherichia coli
[41] = test system: Klebsiella pneumoniae ATCC 13883
[42] = test system: Staphylococcus aureus ATCC 25923
[43] = test system: Staphylococcus aureus ATCC BAA-44
[44] = test system: Staphylococcus epidermidis ATCC 51625
[45] = test system: Streptococcus pyogenes ATCC 19615

SMILES: CC(C)[C@H](NC(=O)[C@H](C)NC(=O)[C@H](C)NC(=O)CNC(=O)[C@@H]1CCCN1)C(=O)N[C@@H](Cc1ccccc1)C(=O)N[C@@H](CCCCN)C(=O)O [PGAAVFK]
- MIC [18]: ≥ 36 µM
- MIC [19]: 12 µM (≈ 8.27 µg/mL)
- MIC [20]: ≥ 36 µM
- MIC [21]: 12 µM (≈ 8.27 µg/mL)

SMILES: CC(C)C[C@H](NC(=O)[C@H](CCCCN)NC(=O)[C@H](CC(C)C)NC(=O)[C@H](CC(N)=O)NC(=O)[C@H](CC(C)C)NC(=O)[C@H](CCCCN)NC(=O)[C@H](CS)NC(=O)[C@@H]1CCCN1C(=O)[C@@H](N)Cc1ccc(O)cc1)C(=O)NCC(=O)N[C@@H](CCCCN)C(=O)N[C@H](C(=O)N1CCC[C@H]1C(=O)N[C@@H](Cc1ccccc1)C(=O)N[C@@H](Cc1cnc[nH]1)C(N)=O)C(C)C [YPCKLNLKLGKVPFH]
- MIC [27]: 10 µM (≈ 17.6 µg/mL)
- MIC [28]: 10 µM (≈ 17.6 µg/mL)
- MIC [1]: 10 µM (≈ 17.6 µg/mL)
- MIC [29]: 5 µM (≈ 8.78 µg/mL)
- MIC [30]: 2.5 µM (≈ 4.39 µg/mL)
- MIC [31]: 2.5 µM (≈ 4.39 µg/mL)
- MIC [32]: 5 µM (≈ 8.78 µg/mL)
- MIC [33]: 5 µM (≈ 8.78 µg/mL)
- MIC [7]: 10 µM (≈ 17.6 µg/mL)
- MIC [34]: 5 µM (≈ 8.78 µg/mL)
- MIC [35]: 5 µM (≈ 8.78 µg/mL)
- MIC [36]: 5 µM (≈ 8.78 µg/mL)
- MIC [37]: 5 µM (≈ 8.78 µg/mL)
- MIC [38]: 5 µM (≈ 8.78 µg/mL)

SMILES: CC(C)C[C@H](NC(=O)[C@H](CO)NC(=O)[C@H](CCCN=C(N)N)NC(=O)[C@H](CCCCN)NC(=O)[C@@H](NC(=O)[C@@H](NC(=O)CNC(=O)[C@H](CCCN=C(N)N)NC(=O)[C@H](Cc1cnc[nH]1)NC(=O)[C@H](Cc1c[nH]c2ccccc12)NC(=O)[C@H](Cc1ccccc1)NC(=O)[C@H](Cc1cnc[nH]1)NC(=O)[C@H](Cc1ccc(O)cc1)NC(=O)[C@@H](N)Cc1ccc(O)cc1)C(C)C)[C@@H](C)O)C(=O)N[C@@H](CO)C(=O)N1CCC[C@H]1C(=O)N[C@@H](Cc1cnc[nH]1)C(=O)N[C@@H](CCCN=C(N)N)C(=O)N1CCC[C@H]1C(=O)N[C@@H](CCCN=C(N)N)C(=O)O [YYHFWHRGVTKRSLSPHRPR]
- MIC [39]: 6 µM (≈ 15.5 µg/mL)
- MIC [30]: 6 µM (≈ 15.5 µg/mL)
- MIC [40]: 6 µM (≈ 15.5 µg/mL)
- MIC [41]: 6 µM (≈ 15.5 µg/mL)
- MIC [7]: 8 µM (≈ 20.6 µg/mL)
- MIC [25]: 8 µM (≈ 20.6 µg/mL)
- MIC [42]: 6 µM (≈ 15.5 µg/mL)
- MIC [43]: 30 µM (≈ 77.4 µg/mL)
- MIC [44]: 30 µM (≈ 77.4 µg/mL)
- MIC [45]: 15 µM (≈ 38.7 µg/mL)

Second part, the compound after the results:

- MIC [1]: 4.7 µM (≈ 9.69 µg/mL)
- MIC [2]: 4.7 µM (≈ 9.69 µg/mL)
- MIC [3]: 4.7 µM (≈ 9.69 µg/mL)
- MIC [4]: 4.7 µM (≈ 9.69 µg/mL)
- MIC [5]: 1.2 µM (≈ 2.47 µg/mL)
- MIC [6]: 1.2 µM (≈ 2.47 µg/mL)
- MIC [7]: 2.3 µM (≈ 4.74 µg/mL)
- MIC [8]: 2.3 µM (≈ 4.74 µg/mL)
- MIC [9]: 2.3 µM (≈ 4.74 µg/mL)
SMILES: CC[C@H](C)[C@H](NC(=O)[C@H](CC(C)C)NC(=O)[C@H](CCCCN)NC(=O)[C@H](CCCCN)NC(=O)[C@@H](NC(=O)[C@H](CC(C)C)NC(=O)[C@H](CCCCN)NC(=O)[C@@H]1CCCN1C(=O)[C@@H](NC(=O)[C@H](CC(C)C)NC(=O)[C@H](CCCCN)NC(=O)[C@H](Cc1ccccc1)NC(=O)[C@@H](N)Cc1ccccc1)[C@@H](C)CC)C(C)C)C(=O)N[C@@H](CCCCN)C(=O)N[C@@H](C)C(=O)N[C@@H](Cc1ccccc1)C(=O)N[C@@H](CCCCN)C(N)=O [FFKLIPKLVKKLIKAFK]

- MIC [10]: 3 µM (≈ 6.99 µg/mL)
- MIC [11]: 3 µM (≈ 6.99 µg/mL)
- MIC [12]: 3 µM (≈ 6.99 µg/mL)
- MIC [13]: 3 µM (≈ 6.99 µg/mL)
SMILES: CC[C@H](C)[C@H](NC(=O)[C@H](C)NC(=O)[C@H](CCCCN)NC(=O)[C@@H](NC(=O)[C@H](CC(C)C)NC(=O)[C@H](C)NC(=O)[C@H](CCCCN)NC(=O)[C@H](Cc1ccccc1)NC(=O)[C@@H](NC(=O)[C@H](C)NC(=O)[C@H](CCCCN)NC(=O)CNC(=O)[C@@H](NC(=O)[C@H](CCCCN)NC(=O)[C@@H](NC(=O)[C@@H](NC(=O)[C@H](Cc1ccccc1)NC(=O)[C@H](CCCCN)NC(=O)[C@H](CC(C)C)NC(=O)[C@H](CC(C)C)NC(=O)[C@@H](N)CCCCN)C(C)C)[C@@H](C)O)C(C)C)[C@@H](C)CC)[C@@H](C)CC)C(=O)O [KLLKFVTKVGKAIFKALIKAI]

- MIC [6]: 64 µM (≈ 88.7 µg/mL)
- MIC [14]: ≥ 128 µM
- MIC [15]: ≥ 64 µM
- MIC [16]: ≥ 256 µM
- MIC [17]: ≥ 256 µM
- MIC [8]: 640 µM (≈ 887 µg/mL)
SMILES: CC(C)C[C@H](NC(=O)[C@H](CCC(N)=O)NC(=O)[C@@H]1CCCN1C(=O)[C@@H](NC(=O)[C@H](CCCCN)NC(=O)[C@H](Cc1ccc(O)cc1)NC(=O)[C@H](CCCCN)NC(=O)[C@H](CCCCN)NC(=O)[C@H](CC(C)C)NC(=O)[C@H](CCCN=C(N)N)NC(=O)[C@@H](N)CC(C)C)C(C)C)C(=O)O [LRLKKYKVPQL]

- MIC [22]: ≥ 32 µM
- MIC [23]: 16 µM (≈ 30.6 µg/mL)
- MIC [24]: ≥ 32 µM
- MIC [25]: 8 µM (≈ 15.3 µg/mL)
- MIC [26]: ≥ 32 µM
- MIC [9]: > 64 µM
SMILES: CC(C)C[C@H](NC(=O)[C@H](Cc1ccc(O)cc1)NC(=O)[C@@H]1CCCN1C(=O)[C@@H]1CCCN1C(=O)[C@H](CCCN=C(N)N)NC(=O)[C@@H]1CCCN1C(=O)[C@H](CCCN=C(N)N)NC(=O)[C@H](CCCN=C(N)N)NC(=O)[C@@H](N)CCCN=C(N)N)C(=O)N1CCC[C@H]1C(=O)N1CCC[C@H]1C(=O)N[C@@H](CCCN=C(N)N)C(=O)N[C@@H](CCCN=C(N)N)C(=O)N1CCC[C@H]1C(=O)N1CCC[C@H]1C(=O)O [RRRPRPPYLPPRRPP]
